This is an account of results in paper PMC11284088, “Synthesis and biochemical characterization of naphthoquinone derivatives targeting bacterial histidine kinases” (The Journal of Antibiotics, 2024).

Assay [1] concerns B. subtilis 168 strain. The assay is described as follows: MIC, standard microtiter broth dilution. It is filed as cell-based, Bacillus subtilis. The arrangement: key to MIC: MIC + antibacterial activity against Bacillus subtilis 168. The following applies: for antibacterial (antimicrobial) activity against B. subtilis: in words. The protocol: The minimum inhibitory concentrations (MICs) were determined using the standard microtiter broth dilution method, as recommended by the guidelines of the Clinical Laboratory Standards Institute.

Assay [2] concerns the target T1, WalK (207-611, B. subtilis) (Bacillus subtilis, UniProt Q45614).
T1 construct: His6 (N); made in house; host or cells: E. coli BL21(DE3)
The assay is described as follows: Affinity selection/mass spectrometry, competition with waldiomycin. Further details: key to AS/MS: AS/MS + competitive inhibition of the binding of waldiomycin to WalK; − increased binding of waldiomycin to WalK. The following applies: for AS/MS: summary class, effect on binding of waldiomycin to WalK. It is filed as binding. The protocol: The affinity selection/mass spectrometry (AS/MS) is a method which can detect the binding of small compounds to proteins. This experiment was carried out following a previously established protocol (Fig. 5), with the exception of using Millipore 96-well filter plates (MSBVN1210) instead of MAHAN4510. In the experiment, 1 µM of WalK (207-611, B. subtilis, refer to Table S2) was combined and incubated with 5 µM of waldiomycin and competitor compounds in a reaction buffer. The buffer composition was as follows: 25 mM Tris-HCl (pH 8.0), 50 mM KCl, 50 mM NH4Cl, 5 mM MgCl2, 1 mM DTT, and 0.1% CHAPS. Following the incubation, the mixture was subjected to size-exclusion chromatography via centrifugation to eliminate free compounds. The protein that was eluted was then denatured by adding an equal volume of methanol/0.1% formic acid. The compounds that were subsequently released from the protein were detected using an LC/MS system. The concentrations of waldiomycin were calculated from the value of peak areas using calibration curve that covered the range of 1 nM to 1 µM (R^2 = 0.9991). The concentration of waldiomycin in the eluate of WalK and waldiomycin without competitor was 10.1 nM, and percentages to this value were calculated for other samples.

Assay [3] relates to iseA (formerly yoeB). The assay can be described thus: RT-qPCR of iseA expression in B. subtilis cells. It is filed as cell-based, B. subtilis 168. The arrangement: key to RT-qPCR: RT-qPCR + iseA gene expression was induced in B. subtilis 168; − no effect. To be noted: for expression of iseA: exponentially growing cells, subMIC or MIC levels, 5 min, relative to DMSO control; for RT-qPCR: summary class, iseA gene expression in B. subtilis 168. The protocol:
In brief, the cells were aerated and grown to an optical density at 660 nm of 0.3–0.4 at 37 °C. After the addition of DMSO or naphthoquinone derivatives, the cultures were further incubated for 5 min, cooled on ice for 1 min, and then harvested by centrifugation (2300 × g, 10 min, 4 °C). The cells were resuspended in 800 µl of RNA Lysis Buffer (SV Total RNA Isolation System, Z3100, Promega), transferred to a screw-capped tube containing 400 mg of glass beads (GB-01, TOMY), and disrupted using MicroSmash (MS-100, TOMY Medico) at 3000 rpm, 60 s ON/OFF for 6 cycles. RNA was then purified from 175 µl of the supernatant using the SV Total RNA Isolation System, followed by DNase I treatment (Turbo DNA-free^TM Kit, AM1907, Invitrogen) to remove any residual genomic DNA contamination. […] The expression levels of the genes were normalized using the 16S rRNA gene as an internal standard. Each assay was performed at least three times. Statistical analyses were conducted using Tukey’s multiple comparison test (GraphPad Prism 7).

For assay [4], the target named is T2, WalK (Bacillus subtilis, UniProt Q45614).
T2 construct: His6 (N); made in house; host or cells: E. coli BL21(DE3)
The assay is described as follows: Inhibition of WalK autophosphorylation. The format is biochemical. Further details: key to WalK: WalK + inhibitory effect against WalK. To be noted: for IC50: against WalK from B. subtilis, autophosphorylation, N.I. = no inhibition, read-out: IC50; for WalK: summary class. The protocol:
(§1) Autophosphorylation of WalK was conducted at 0.5 or 1 µM in a reaction mixture comprising 50 mM Tris-HCl (pH 8.5), 100 mM KCl, 5 mM MgCl2, 100 mM NH4Cl, 5% DMSO, and 40 µM ATP. The total reaction volume was 40 µl, and the incubation lasted for 30 min at 25 °C. To terminate the reaction, 40 µl of 2 × SDS-PAGE sample buffer was added, followed by a 10-min incubation at 37 °C. Subsequently, SDS-PAGE (10% acrylamide) was performed, and the samples were subjected to Western blotting using a PVDF membrane (Bio-Rad 1620177). The primary antibody used was anti-N3-phosphohistidine antibody (clone SC56-2) (EDM Millipore Corp), and the secondary antibody was goat anti-rabbit IgG-HRP (Abcam). A 2% bovine serum albumin (Sigma-Aldrich) solution served as the blocking reagent. Signals originating from phosphorylated HKs were detected using the HRP substrate (Immobilon Western Chemiluminescent HRP substrate, Millipore) and the Multi Imager II Multi Box (Bio Tools). Signal intensities were quantified with Image Analysis Software CS Analyzer 4 (ATTO). IC50 values (50% inhibitory concentrations) were determined using Prism 7 software (GraphPad).
(§2) In the assessment of naphthoquinone derivatives, the initial screening for inhibitory activity against WalK autophosphorylation was conducted at 50 or 100 µg ml^−1. Compounds displaying inhibitory activity were further examined to ascertain their IC50 values against WalK. For the chosen compounds, inhibition against EvgS, EnvZ, PhoQ, and CpxA HKs was also assessed. These reactions involved the use of 1 µM HK, 40 µM ATP, and a 30 min incubation at 25 °C.

A further assay has as its target T3, PhoQ (Escherichia coli, UniProt P23837).
T3 construct: cytoplasmic regions of PhoQ (261-486) and CpxA (188-457); His6 (C); made in house; host or cells: E. coli BL21(DE3)
The assay is described as follows: Inhibition of PhoQ autophosphorylation. The format is biochemical, Escherichia coli K12. The method, then:
as §1, §2

Assay [5] concerns HKs (EvgS, EnvZ, PhoQ, and CpxA). The assay can be described thus: Inhibition of class I HKs, summary over several HKs. The format is biochemical, Escherichia coli K12. Further details: key to HKs: HKs + inhibitory effect against HKs (EvgS, EnvZ, PhoQ, and CpxA). The protocol: as §1, §2
In the next assay the target is T4, EvgS (559–1197) D1009A (Escherichia coli, UniProt P30855, D1009A).
T4 construct: EvgS (559–1197) D1009A; His6 (C); made in house; host or cells: E. coli BL21(DE3)
The assay is described as follows: Inhibition of EvgS autophosphorylation. It is filed as biochemical, Escherichia coli K12. The protocol: as §1, §2

For another assay, the target named is T5, CpxA (Escherichia coli, UniProt P0AE82).
T5 construct: cytoplasmic regions of PhoQ (261-486) and CpxA (188-457); His6 (C); made in house; host or cells: E. coli BL21(DE3)
The assay can be described thus: Inhibition of CpxA autophosphorylation. The format is biochemical, Escherichia coli K12. The method, then:
as §1, with “The” for “Autophosphorylation of WalK was conducted at 0.5 or 1 µM in a reaction mixture comprising 50 mM Tris-HCl (pH 8.5), 100 mM KCl, 5 mM MgCl2, 100 mM NH4Cl, 5% DMSO, and 40 µM ATP. The”
In the assessment of naphthoquinone derivatives, the initial screening for inhibitory activity against WalK autophosphorylation was conducted at 50 or 100 µg ml^−1. Compounds displaying inhibitory activity were further examined to ascertain their IC50 values against WalK. For the chosen compounds, inhibition against EvgS, EnvZ, PhoQ, and CpxA HKs was also assessed. […]

Another assay addresses T6, EnvZ (Escherichia coli, UniProt P0AEJ4).
T6 construct: pETEcEnvZ(223-450); His6 (C); made in house; host or cells: E. coli BL21(DE3)
The assay can be described thus: Inhibition of EnvZ autophosphorylation. It is filed as biochemical, Escherichia coli K12. The protocol: as §1, §2

Assay [6] deals with B. subtilis 168 strain. Further details: method as in PMID 27999439, PMID 28674376, PMID 26582287; key: MIC + antibacterial activity against Bacillus subtilis 168. The following applies: Bacillus subtilis 168, cited from earlier work.
The subject of another assay is class I HKs. Further details: method as in PMID 27999439. The following applies: including WalK, PhoQ, EnvZ, and CpxA; cited from earlier work.
For assay [7], the target named is T2, WalK. Further details: key: WalK + inhibitory effect against WalK. To be noted: summary class; cited from earlier work.
Assay [8] has as its system HKs (EvgS, EnvZ, PhoQ, and CpxA). Further details: key: HKs + inhibitory effect against HKs (EvgS, EnvZ, PhoQ, and CpxA). To be noted: summary class; cited from earlier work.
The subject of assay [9] is iseA (formerly yoeB). The arrangement: method as in PMID 27999439, PMID 28674376, PMID 26582287; key: RT-qPCR + iseA gene expression was induced in B. subtilis 168; − no effect. The following applies: summary class, iseA gene expression; cited from earlier work.
[10] abbreviates: summary class, Bacillus subtilis 168.
The mark [11] stands for this setting: Bacillus subtilis, B. subtilis 168 strain grown in LB broth at 37 °C for 18 h, read-out: MIC.

“Also recorded” adds a separate entry of the source. Like-named read-outs stand apart in the source and are kept apart here.

T2 sequence (Q45614 207-611): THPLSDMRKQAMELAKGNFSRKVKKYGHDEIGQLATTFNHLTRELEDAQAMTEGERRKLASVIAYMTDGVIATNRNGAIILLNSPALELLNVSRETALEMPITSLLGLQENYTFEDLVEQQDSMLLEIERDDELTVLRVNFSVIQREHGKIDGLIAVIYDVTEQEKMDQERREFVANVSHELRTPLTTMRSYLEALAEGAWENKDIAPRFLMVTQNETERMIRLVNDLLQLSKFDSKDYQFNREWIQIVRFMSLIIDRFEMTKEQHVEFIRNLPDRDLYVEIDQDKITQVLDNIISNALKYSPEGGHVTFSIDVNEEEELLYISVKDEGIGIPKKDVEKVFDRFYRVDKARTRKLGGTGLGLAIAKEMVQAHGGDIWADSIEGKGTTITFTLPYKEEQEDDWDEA
T1 sequence (Q45614 207-611): as above
T5 sequence (P0AE82 188-457): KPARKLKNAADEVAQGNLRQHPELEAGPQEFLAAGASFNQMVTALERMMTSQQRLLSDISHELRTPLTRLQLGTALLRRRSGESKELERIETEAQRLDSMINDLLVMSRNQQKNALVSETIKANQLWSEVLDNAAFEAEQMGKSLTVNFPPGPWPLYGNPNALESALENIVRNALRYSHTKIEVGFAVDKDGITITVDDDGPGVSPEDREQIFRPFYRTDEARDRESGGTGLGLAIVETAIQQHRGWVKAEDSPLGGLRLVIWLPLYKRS
T4 sequence (P30855 559-1197 D1009A): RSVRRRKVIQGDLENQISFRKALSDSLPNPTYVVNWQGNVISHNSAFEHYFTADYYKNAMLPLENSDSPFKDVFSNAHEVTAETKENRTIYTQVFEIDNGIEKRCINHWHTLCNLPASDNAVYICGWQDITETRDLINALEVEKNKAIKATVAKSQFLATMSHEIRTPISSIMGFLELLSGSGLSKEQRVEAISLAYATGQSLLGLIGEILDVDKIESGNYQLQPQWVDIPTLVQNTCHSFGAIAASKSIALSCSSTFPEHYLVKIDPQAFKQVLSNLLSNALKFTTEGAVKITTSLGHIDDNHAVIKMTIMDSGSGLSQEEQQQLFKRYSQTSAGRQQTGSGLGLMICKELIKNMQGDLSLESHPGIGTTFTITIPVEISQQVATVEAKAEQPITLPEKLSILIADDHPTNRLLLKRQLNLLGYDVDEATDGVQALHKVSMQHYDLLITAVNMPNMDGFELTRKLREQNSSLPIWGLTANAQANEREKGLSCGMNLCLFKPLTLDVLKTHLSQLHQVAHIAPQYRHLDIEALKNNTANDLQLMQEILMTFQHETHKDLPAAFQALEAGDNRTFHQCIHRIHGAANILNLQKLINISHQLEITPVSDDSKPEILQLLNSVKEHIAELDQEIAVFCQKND
T6 sequence (P0AEJ4 223-450): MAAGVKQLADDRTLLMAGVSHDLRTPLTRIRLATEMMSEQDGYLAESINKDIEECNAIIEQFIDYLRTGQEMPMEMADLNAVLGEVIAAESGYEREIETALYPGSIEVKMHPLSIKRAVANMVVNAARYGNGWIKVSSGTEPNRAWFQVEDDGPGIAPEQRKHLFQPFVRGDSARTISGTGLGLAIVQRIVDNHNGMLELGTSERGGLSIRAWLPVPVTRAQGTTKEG
T3 sequence (P23837 261-486): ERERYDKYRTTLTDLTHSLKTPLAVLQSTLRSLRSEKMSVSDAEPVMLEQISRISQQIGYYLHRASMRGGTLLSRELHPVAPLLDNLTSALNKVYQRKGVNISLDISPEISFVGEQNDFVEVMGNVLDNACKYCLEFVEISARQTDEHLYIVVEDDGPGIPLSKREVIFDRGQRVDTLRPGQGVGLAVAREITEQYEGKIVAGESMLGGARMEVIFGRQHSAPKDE

In the case of `O=C1C(N2CCNCC2)=CC(=O)c2c(O)cccc21` [2b, 5-hydroxy-2-(piperazin-1-yl)naphthalene-1,4-dione], in the assay on B. subtilis 168 strain [1] (B. subtilis 168 strain grown in LB broth at 37 °C for 18 h), the minimum inhibitory concentration (MIC) was determined as 8 µg/mL. Moreover, in the assay on B. subtilis 168 strain [1], the “antibacterial (antimicrobial) activity against B. subtilis” value was “equal to waldiomycin or even stronger”. Besides, the minimal inhibitory concentration (MIC) entry with B. subtilis 168 strain [1] (setting [10]) is “+”. For the same compound, the “increase of MS signal of the collected waldiomycin compared to only waldiomycin” value in assay [2] (compound 30 or 100 µM, waldiomycin 5 µM, WalK 1 µM) is “about twofold”. The “binding to WalK competitive with that of waldiomycin” value in assay [2] (in words) was “not competitive; also recorded: enhanced the binding of waldiomycin to WalK”. Also, the AS/MS result in assay [2] is on record as “−”. For the same compound, in the assay on iseA (formerly yoeB) [3], the “expression of iseA” value was “did not change” and the RT-qPCR result is “−”. On WalK [4], the IC50 was determined as 48.4 µM and the WalK result is “+”.

With `Nc1cccc2c1C(=O)C(Cl)=C(Nc1ccc(O)c(C(=O)O)c1)C2=O` [2o, 5-((5-amino-3-chloro-1,4-dioxo-1,4-dihydronaphthalen-2-yl)amino)-2-hydroxybenzoic acid], the half-maximal inhibitory concentration (IC50) amounted to 0.1 µM at PhoQ; 25.9 µM on WalK [4]; 0.2 µM against EvgS (559–1197) D1009A; 0.8 µM at CpxA; 1.3 µM against EnvZ. In addition, the minimal inhibitory concentration (MIC) in the assay with B. subtilis 168 strain [1] (setting [11]) was 16 µg/mL; with B. subtilis 168 strain [1] (setting [10]), “+”. In the assay on B. subtilis 168 strain [1], the “antibacterial (antimicrobial) activity against B. subtilis” value is on record as “weaker”. Also, the “effect on the signal of waldiomycin” value in [2] (compound 30 and 100 µM, in words) was “reduced the signal of waldiomycin in a dose-dependent manner”. The “signal of waldiomycin compared to only waldiomycin with WalK” value in [2] (compound at 100 µM, waldiomycin 5 µM, WalK 1 µM) was “about 10%”. The “binding to WalK competitive with that of waldiomycin” value in assay [2] (in words) was “competitive; also recorded: competitively interacted with waldiomycin”. In assay [2], the AS/MS result was “+”. Also, the “expression of iseA” value in the assay with iseA (formerly yoeB) [3] is “did not change”. In addition, the RT-qPCR entry in the assay with iseA (formerly yoeB) [3] is listed as “−”. For the same compound, the “inhibition of EvgS, EnvZ, PhoQ, and CpxA” value in [5] (in words) was “inhibited all four of these HKs”. The HKs result in assay [5] (summary class, EvgS, EnvZ, PhoQ, and CpxA) is “+”. The “inhibitory activity against WalK” value on WalK [4] (in words) was “weaker”. The WalK entry on WalK [4] is “+”.

For `C[C@@H]1O[C@](C)(C(=O)O)OC1/C=C/C=C/C=C/C(=O)O[C@H]1CC[C@H](c2ccc3c(c2O)C(=O)c2ccc4c(c2C3=O)C(=O)[C@@H](O)[C@](C)(O)C4)O[C@@H]1C` (some centres unmarked) [Waldiomycin, reference compound], the MIC was 8 µg/mL in the assay with B. subtilis 168 strain [6], “+” in the assay with B. subtilis 168 strain [6] (summary class) and 8 µg/mL in the assay with B. subtilis 168 strain [1] (setting [11]). The IC50 against PhoQ worked out at 10.9 µM; on WalK [4], 13.1 µM; on EvgS (559–1197) D1009A, 66.8 µM; at CpxA, 93.9 µM; against EnvZ it was 33.1 µM. Also, in the assay on class I HKs, the “inhibition of class I HKs” value is given as “inhibited 13 class I HKs”. In addition, the “concentration of waldiomycin in the eluate of WalK and waldiomycin” value in assay [2] (without competitor, WalK 1 µM, waldiomycin 5 µM) was found to be 10.1 nM. Moreover, at WalK [7], the WalK entry is recorded as “+”. The HKs result in assay [8] was “+”. Further, in the assay on iseA (formerly yoeB) [9], the RT-qPCR result was “+”.
